According to article PMC6986443, “T‐495, a novel low cooperative M1 receptor positive allosteric modulator, improves memory deficits associated with cholinergic dysfunction and is characterized by low gastrointestinal side effect risk” (Pharmacology Research & Perspectives, 2020):
Where two headings read alike, the source gives them in different places.

Experiments:
[1] = system: ileum segment of ICR mice; assay: Spontaneous ileum contraction; design: species or system mouse; details: 0.01, 0.1, and 1 μmol/L applied cumulatively
Procedure: ICR mice were fasted overnight and sacrificed by decapitation, and the ileum was removed and the luminal contents were gently flushed out with ice‐cold modified Krebs buffer (NaCl, 120.7 mmol/L; KCl, 5.9 mmol/L; NaHCO3, 15.5 mmol/L; MgCl2, 1.2 mmol/L; NaH2PO4, 1.2 mmol/L; CaCl2, 2.5 mmol/L; glucose, 11.5 mmol/L). The ileum segment (approximately 5 mm in length) was suspended in a 10‐mL organ bath filled with oxygenated (95% O2 and 5% CO2) modified Krebs buffer at 37°C. One end of the ileum segment was tied to a hook and the other end was secured with a silk thread to an isometric force transducer (MLT050/A, ADInstruments) connected to a data acquisition system (PowerLab 8/30 ML870 and Octal Bridge Amp ML228, ADInstruments). The ileum segment was subjected to an initial tension of 0.3 to 0.4 g and was allowed to equilibrate for at least 30 minutes. After the equilibration period, spontaneous contractions were measured for 3 minutes (pretreatment) and then increasing concentrations of a test compound (0.01, 0.1, and 1 μmol/L) were cumulatively applied at 3‐minute intervals. LabChart software (ADInstruments) was used to analyze the spontaneous contractions. The mean amplitude of spontaneous contractions at each concentration was normalized to that observed at pretreatment.

[2] = system: rats pretreated with scopolamine; assay: Novel object recognition (NOR) test, scopolamine‐induced memory impairment; assay type: in vivo, rat; details: for scopolamine‐induced NDI reduction, retention trial: scopolamine 0.1 mg/kg s.c.
Procedure: On Day 1, 7‐week‐old Long‐Evans rats were individually placed into the test box fabricated from polyvinyl chloride (40‐cm square with 50‐cm high walls) without any objects for 10 minutes. […] In the acquisition trial, each rat was placed in the test box containing two identical objects and allowed to explore them for 3 minutes. After an intertrial interval of 4 hours, each rat was again placed in the same test box containing one familiar and one novel objects and allowed to explore both for 3 minutes (retention trial). The behavior of each animal during the acquisition and retention trials was recorded on video, and the time spent exploring each object (licking, sniffing, or touching the object with the forepaws) was scored manually. Results were presented as novelty discrimination index (NDI) calculated as follows: the exploration time for the novel object/the exploration time for both objects × 100.

human M1R = molecular target: T1, human M1R (Homo sapiens, UniProt P11229); assay: Ca2+ mobilization assay, agonist activity (absence of ACh), CHO‐K1 cells; assay type: cell-based; design: expressed in transfected cells; host or cells: CHO-K1; details: for margin between PAM and agonist activities: CHO‐K1 cells expressing human M1R
T1 sequence (P11229 1-460): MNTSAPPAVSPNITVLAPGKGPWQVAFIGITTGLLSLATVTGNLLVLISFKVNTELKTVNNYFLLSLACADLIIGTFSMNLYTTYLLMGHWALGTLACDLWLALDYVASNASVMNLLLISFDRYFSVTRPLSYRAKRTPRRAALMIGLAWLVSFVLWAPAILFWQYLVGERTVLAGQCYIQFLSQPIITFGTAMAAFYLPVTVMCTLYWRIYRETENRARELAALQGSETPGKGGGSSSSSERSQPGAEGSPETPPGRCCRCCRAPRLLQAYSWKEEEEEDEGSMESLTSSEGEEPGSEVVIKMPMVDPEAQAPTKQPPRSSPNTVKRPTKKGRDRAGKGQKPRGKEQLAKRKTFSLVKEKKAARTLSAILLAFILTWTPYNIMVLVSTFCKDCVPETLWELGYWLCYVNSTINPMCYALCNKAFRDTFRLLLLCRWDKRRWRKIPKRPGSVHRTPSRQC
Procedure: Chinese hamster ovary (CHO)‐K1 cells expressing M1R–M5R were plated on a 96‐well black, clear bottom plate at 30 000 cells/well and incubated at 37°C in an atmosphere of 5% CO2 for 1 day. On the day of the assay, cells were incubated with calcium dye buffer (Hanks’ Balanced Salt Solution (HBSS) containing 20 mmol/L HEPES, 0.1% fatty acid‐free bovine serum albumin (BSA), 0.08% pluronic F127 (Dojindo Laboratories), 2.5 μg/mL Fluo‐4 (Dojindo Laboratories), and 1.25 mmol/L probenecid (Dojindo Laboratories)) for 30 minutes at 37°C in an atmosphere of 5% CO2 and then incubated for 30 minutes at room temperature. To measure Ca^2+ mobilization using CellLux (PerkinElmer), cells were stimulated with T‐495 or MK‐7622 (0.01‐1000 nmol/L for PAM activity; 0.3‐10 000 nmol/L for agonist activity) in assay buffer (HBSS containing 20 mmol/L HEPES and 0.1% fatty acid‐free BSA) with or without an EC20 concentration of ACh. The inflection point (IP) and EC50 values were calculated using the following equation by GraphPad Prism 5 software (GraphPad Software Inc): Y=Bottom+(Top-Bottom)/1+10^(Log IPorEC50-X×HillSlope))
where X and Y are the log concentration of a compound and the percentage of Ca^2+ response, respectively, and Top and Bottom are the upper and lower plateaus, respectively.

[3] = Concentrations in mouse plasma and brain after single and repeated treatment; assay type: in vivo; details: C57BL/6J, oral, mean ± SD
Procedure: Eight‐week‐old Long‐Evans rats, 8‐ to 9‐week‐old C57BL/6J mice, and 22‐ or 29‐week‐old M1R KO mice and their WT littermates were used in this study. On the day of the experiment, animals were placed in individual cages and acclimated for more than 1 hour. A test compound or vehicle was administered 2 hours before the animals were sacrificed. […] LiCl (10 mmol/kg, s.c.) was injected 1 hour before sacrifice. In the repeated administration study, a test compound was administered to mice once daily for 13 days; on day 14, animals were treated with a test compound and LiCl (10 mmol/kg, s.c.) and then sacrificed. Animals were killed by decapitation, and blood was collected into tubes containing ethylenediaminetetraacetic acid for pharmacokinetic analysis; brains were quickly dissected, frozen on dry ice, and stored at −80°C until analysis. Brain tissues were homogenized in 19 (for rat tissues) or 39 (for mouse tissue) volumes of homogenization buffer (10 mmol/L HEPES pH 7.4, 50 mmol/L LiCl, 150 mmol/L NaCl, and 1% Triton X‐100), and the homogenate was incubated on a rotator for 1 hour, followed by centrifugation. The supernatant was diluted with 39 (for rat tissues) or 19 (for mouse tissues) volumes of dilution buffer (10 mmol/L HEPES pH 7.4, 50 mmol/L LiCl, and 150 mmol/L NaCl). IP1 and protein concentrations in the diluted supernatant were measured using IP‐One HTRF assay kit (Cisbio Bioassays) and BCA Protein Assay Kit (Thermo Fisher Scientific Inc), respectively, according to the manufacturers’ instructions. IP1 production was expressed as the ratio of IP1 to protein concentrations.

[4] = brain (hippocampus), 10 mg/kg, mouse hippocampus, pretreated with the compound 10 mg/kg p.o. for 13 days, 10 mg/kg p.o., read-out: Brain concentration
[5] = brain (hippocampus), 10 mg/kg, mouse hippocampus, vehicle-pretreated, 10 mg/kg p.o., read-out: Brain concentration
[6] = brain (hippocampus), 30 mg/kg, mouse hippocampus, pretreated with the compound 10 mg/kg p.o. for 13 days, 30 mg/kg p.o., read-out: Brain concentration
[7] = brain (hippocampus), 30 mg/kg, mouse hippocampus, vehicle-pretreated, 30 mg/kg p.o., read-out: Brain concentration
[8] = plasma, 10 mg/kg, pretreated with the compound 10 mg/kg p.o. for 13 days, 10 mg/kg p.o., read-out: Plasma concentration
[9] = plasma, 10 mg/kg, vehicle-pretreated, 10 mg/kg p.o., n = 10, read-out: Plasma concentration
[10] = plasma, 30 mg/kg, pretreated with the compound 10 mg/kg p.o. for 13 days, 30 mg/kg p.o., read-out: Plasma concentration
[11] = plasma, 30 mg/kg, vehicle-pretreated, 30 mg/kg p.o., n = 10, read-out: Plasma concentration

For `Cc1ccc(Cc2cc3c(=O)n([C@H]4CCCC[C@@H]4O)cnc3c3ccccc23)cn1` [MK‐7622, 3‐((1S,2S)‐2‐hydroxycyclohexyl)‐6‐((6‐methylpyridin‐3‐yl)methyl)benzo[h]quinazolin‐4(3H)‐one, reference compound], the “concentration at which spontaneous ileum contraction was increased” value [1] was ≤ 0.01 µmol/L, the “scopolamine‐induced NDI reduction, retention trial” value ([2]; 1 mg/kg p.o.) was “subeffective” and the “scopolamine‐induced NDI reduction, retention trial” value ([2]; 3 mg/kg p.o.) was “significantly reversed”. For the same molecule, the “scopolamine‐induced NDI reduction, retention trial” value ([2]; 10 mg/kg p.o.) was “significantly reversed”, the “scopolamine‐induced NDI reduction, combination with donepezil” value ([2]; MK‐7622 1 mg/kg + donepezil 0.1 mg/kg p.o.) was “could not reverse” and the EC50 (human M1R) was 407 nM. For the same molecule, the “margin between PAM and agonist activities” value (human M1R) was 313 fold, the concentration at 2 h [3, 4] was 126 ± 28.7 ng/g and the concentration at 2 h [3, 5] was 137 ± 23.1 ng/g. For the same molecule, the concentration at 2 h [3, 6] was 813 ± 262 ng/g, the concentration at 2 h [3, 7] was 787 ± 284 ng/g and the concentration at 2 h [3, 8] was 490 ± 86.4 ng/mL. The concentration at 2 h [3, 9] was 624 ± 61.4 ng/mL, the concentration at 2 h [3, 10] was 2430 ± 550 ng/mL and the concentration at 2 h [3, 11] was 2340 ± 518 ng/mL.
For `Cc1c(Cc2ccc(Cl)nc2)cc2c(c1Cl)OCN([C@H]1CCC[C@@H]1O)C2=O` [T‐495, 8‐chloro‐6‐((6‐chloropyridin‐3‐yl)methyl)‐3‐((1S,2S)‐2‐hydroxycyclopentyl)‐7‐methyl‐2,3‐dihydro‐4H‐1,3‐benzoxazin‐4‐one], the “concentration at which spontaneous ileum contraction was increased” value [1] was 1 µmol/L, the “scopolamine‐induced NDI reduction, retention trial” value ([2]; 0.3 mg/kg p.o.) was “subeffective” and the “scopolamine‐induced NDI reduction, retention trial” value ([2]; 1 mg/kg p.o.) was “significantly reversed”. The “scopolamine‐induced NDI reduction, retention trial” value ([2]; 3 mg/kg p.o.) was “significantly reversed”, the “scopolamine‐induced NDI reduction, combination with donepezil” value ([2]; T‐495 0.3 mg/kg + donepezil 0.1 mg/kg p.o.) was “significantly improved” and the EC50 (human M1R) was 649 nM. For the same molecule, the “margin between PAM and agonist activities” value (human M1R) was 282 fold, the concentration at 2 h [3, 4] was 879 ± 159 ng/g and the concentration at 2 h [3, 5] was 956 ± 122 ng/g. It also gave a concentration at 2 h [3, 6] of 4090 ± 599 ng/g, a concentration at 2 h [3, 7] of 3650 ± 744 ng/g and a concentration at 2 h [3, 8] of 1300 ± 338 ng/mL. For the same molecule, the concentration at 2 h [3, 9] was 1150 ± 215 ng/mL, the concentration at 2 h [3, 10] was 5420 ng/mL and the concentration at 2 h [3, 11] was 4890 ± 923 ng/mL.
